Experimental data taken from a melting point compilation (Tetko et al.; mined from patent text by program, amines drawn as free bases though some values may be those of a salt).

melting point [°C] | Compound
121 to 122 | COc1ccc(N2CCN(c3c(C)c(C)c4c(c3C3CC3)CC(C)(C)O4)CC2)cc1
249 to 253 | CN(C(=O)c1nnc2ccccc2c1O)c1ccc(Cl)cc1
130 to 138 | CCCCc1nc(C(C)(C)O)c(C(N)=O)n1Cc1ccc(-c2ccccc2C(=O)O)cc1
209 to 212 | CCCCCCCNC(=O)Nc1c(C(=O)NC2CCN(C(c3ccccc3)c3ccccc3)CC2)cccc1C(C)C
172 | Cc1nc2c(N)nc3ccccc3c2n1CCCCNC(=O)Nc1ccccc1
148 to 149 | CCOC(=O)C1=C(C)NC(C(F)F)=C(C(=O)OCC)C1c1cccc([N+](=O)[O-])c1 (stereo not drawn)
208 | CC(C)OC(=N)c1sc2ccccc2c1O
46 to 47 | COC(=O)[C@@H]1C[C@H]1C(=O)O (relative stereo)
142 to 147 | COC(=O)c1scc(Cl)c1NC(C)=O
90 to 92 | CC(=O)c1ccc2c(c1)N(C1CCN(CCc3ccc(F)cc3)CC1)CC2
228 to 230 | CC(C)Cc1nc(N)c(C(=O)c2c[nH]c3ccccc23)[nH]c1=O
61 to 65 | CC(C)(C)OC(=O)NCCc1cccc(OCCC2Oc3ccccc3N(Cc3ccccc3Cl)C2=O)c1 (stereo not drawn)
185 | CCOC(=O)C1=C2NCCN2C(C)=C(C(=O)OC)C1c1ccccc1[N+](=O)[O-] (stereo not drawn)
205 to 215 | COc1cccc(OC)c1C(=O)NC(=O)Nc1ccc(-c2ccc(Cl)cc2)cn1
94 to 95 | O=C1NC2c3ccccc3CC2O1 (stereo not drawn)
137 to 138 | CC(=O)c1c(-c2ccncc2)sc(-c2ccncc2)c1C
70 | C=C(C(=O)OC(C)(C)C)C(O)c1ccc(C(=O)OC)cc1 (stereo not drawn)
104 to 108 | O=c1[nH]c(NCCCOc2cccc(CN3CCCCC3)c2)ncc1CCCc1ccccc1
92 | COc1ccc(C2CCc3cc(OC)ccc3C2C#N)cc1 (stereo not drawn)
129 to 132 | COc1ccc(C2CCN(c3c(C)c(C)c4c(c3C)C(c3ccc(C(C)C)cc3)C(C)(C)O4)CC2)cc1OC (stereo not drawn)
104 | O=C1CC2(CCCC2)c2ccc([N+](=O)[O-])cc21
146 | O=c1nc(-c2cccc(CCCO)n2)sc2ccccc12
148 to 153 | Cc1ccc2c(NCc3ccccc3)c3c(nc2c1)CCCC3O (stereo not drawn)
140 to 142 | CSc1ccc2sc(C(N)=O)c(N(C)C)c2c1

melting point [°C] | Compound
106 to 107 | Cc1nc2ccc3c(c2o1)C(=O)CC3
281 to 282 | Clc1ccc2[nH]c3c4ccccc4nc-3c(Cl)c2c1
191 to 193 | O=C(O)CN1C(=O)C(=CC2CC=CCC2)SC1=S (stereo not drawn)
112 to 113 | Nc1c(Cl)cc(-c2ccccc2)cc1Cl
107 to 109 | CCC(C#N)c1nsc2ccc(-n3c(=O)cc(C(F)(F)F)n(C)c3=O)cc12 (stereo not drawn)
64 | CC(C)(Cl)c1cc(C(C)(C)Cl)cc(C(C)(C)Cl)c1
142 | COc1cc(C=CC(=O)OC2C=C(C)C(=O)CC(C)(C)C2O)ccc1O (stereo not drawn)
120 to 135 | Cc1cc(O)ccc1-c1nc2cc(O)cc(Br)c2o1
98 to 99 | Cc1ccc(-c2nc(Cc3cccc(C=O)c3)c(C)o2)cc1
156 | Cc1cc(C(F)(F)C(F)(F)F)nc(N(C(N)=O)c2ccccc2[N+](=O)[O-])n1
114 to 117 | CCCCCCCCCCCCCCCCCCNC(=O)c1cc(O)cc(O)c1
119 to 120 | COc1cccc(C2SCCCS2)c1OC
286 to 288 | CC(C)(C)c1cc(C(=O)c2ncc[nH]2)cc(C(C)(C)C)c1O
219 | COc1nc2cc(C)c(C)c(NS(C)(=O)=O)c2nc1OC
190 to 191 | CCN(CC)CCN(CCN1CCCCC1)c1ccc(-c2nc3ccccc3[nH]2)cc1
121 to 125 | COc1ccc2oc(-c3nc4c(s3)NCCCC4)cc2c1
186 to 187 | Cc1oc(-c2ccccc2)nc1COc1ccc(CCCCC2OC(=O)NC2=O)cc1 (stereo not drawn)
220 to 223 | CC12CCC(O)CC1=CCC1C2CCC2(C)C(n3ccnc3)=CCC12 (stereo not drawn)
184 to 185 | CC(C)OC(=O)NNc1n[nH]c2cc(Cl)ccc12
188 | O=C(Nc1ccccc1)c1cc2ccccc2s1
222 to 223 | Cn1c(=O)nc(-c2ccccc2F)c2ccsc21
195 to 200 | O=S(=O)(c1ccc(N2CCCCC2)cc1)N1CCCC1=S
103 to 105 | O=C(O)C(c1ccc([N+](=O)[O-])cc1)N1CCCC1 (stereo not drawn)

More lines, now with the values behind:

Compound | melting point [°C]
CCC(C)(C)OC(=O)NC(C)(Cc1c[nH]c2ccccc12)C(=O)NC(Cc1cccs1)C(N)=O (stereo not drawn) | 187 to 192
CCOC(=O)c1cc2nc(C(F)(F)F)ccc2n1Cc1ccncc1 | 130 to 131
N#Cc1c[nH]cc1C(F)(F)F | 96 to 97
CC(=O)Nc1c(C#N)c(Cl)c(C#N)n1C | 180 to 182
O=[N+]([O-])c1ccc2c(c1OS(=O)(=O)C(F)(F)F)CCC2 | 44 to 46
CON(Cc1ccc(C)cc1)C(=O)C1=C(O)C(=O)N(C)C1 | 150 to 152
COCCOc1cc2ncc(C#N)c(Nc3ccc(C)c(O)c3)c2cc1OC | 230 to 233
O=S(=O)(c1ccc(Cl)cc1)N(Cc1ccc(OC2CCOCC2)nc1)C1CCOCC1 | 123 to 125
O=C1c2ccccc2COc2ccc(CCO)cc21 | 78 to 81.5
CC(=O)Nc1ccc(OCCO[N+](=O)[O-])cc1 | 106 to 107
O=c1c(Cc2ccccc2)cn2c3ccc(Cl)cc3c3cc(Cl)cc1c32 | 206 to 209
COc1ccc(N2CCCCN(CCCCNC(=O)c3ccc(NC(=O)c4ccc(Cl)cc4)cc3)CC2)c(OC)c1 | 229
CCn1ncc2c3ncn(Cc4ccccc4)c(=O)c3cnc21 | 198 to 200
CCCCc1cnc(-c2cnc(-c3ccc(F)cc3)nc2)nc1 | 196
O[C@@H](COc1cccc(-c2noc3ccsc23)c1)CN1CCN(c2cccc(Cl)c2)CC1 | 118 to 120
O=C(Nc1ccc(F)cc1)OCC1CSC2=C(O1)c1ccccc1C(=O)C2=O (stereo not drawn) | 235 to 237
NCc1cccc(Nc2n[nH]c3ncnc(Nc4cccc(Cl)c4)c23)c1 | 212 to 214
O=C(CN(C(=O)OCc1ccccc1)c1ccc(Cl)cc1)NCCc1ccc(OCc2ccccc2)c(OCc2ccccc2)c1 | 114 to 116
O=C(O)c1ccc2cn(C3CCCC3)nc2c1 | 190 to 193

Compound | melting point [°C]
COc1cc(C(=O)O)ccc1C(F)(F)F | 203 to 204
CCc1cccc2c(/C=C/C(=O)N3CCCCC3)cc(OC)c(OCOC)c12 | 85 to 86
CN1CCN(c2ncnc3oc(-c4ccc([N+](=O)[O-])cc4)c(-c4ccc(F)cc4)c23)CC1 | > 250
CCOCCC(=O)OCC(=O)C1(O)CCC2C3CC(C)C4=CC(=O)C=CC4(C)C3C(O)CC21C (stereo not drawn) | 186
Cc1c(SCCN2CCCCC2)ccnc1CSc1nc2ccccc2[nH]1 | 138 to 140
O=C(Nc1cccc(O)c1)c1ccc(CSc2ccc(O)cc2)cc1 | 218 to 222
CCCCCCCCCCCCCCOc1ccccc1O | 53 to 54
NC(=NO)c1ccc(-c2n[nH]c3c2Cc2ccccc2-3)cc1 | > 300
CCOC(=O)Cn1c(=O)oc2c(O)cccc21 | 150 to 152
CC1Cc2cc3c(cc2C(c2ccc([N+](=O)[O-])cc2)=NN1c1nnns1)OCO3 (stereo not drawn) | 109 to 110
CCC(=O)C1(Nc2ccccc2)CCN(CCc2ccccc2)CC1 | 106
COc1ccc(C=O)cc1-n1nnnc1C | 157
CC(C)(C)OC(=O)CN1CCOc2ccc([N+](=O)[O-])cc2C1=O | 190
COc1cn(-c2ccc(I)cc2F)nc(C(C)=O)c1=O | 196 to 198
CCNn1cc(C(=O)O)c(=O)c2ccc(C)nc21 | 166 to 169
NC(=O)NC(=S)NC(=O)c1ccc(Cl)cc1 | 155 to 158
Cc1cc2ccccc2nc1Sc1ccc2c(c1)CC[C@H]1N(C)C(=O)CC[C@]21C | 185 to 193
N#CCOc1cc(C(F)(F)F)nc2ccc(-c3cc4ccccc4o3)cc12 | 174 to 176
Cc1ccc(-c2ccc3cc(C(=O)Nc4ccc(CN(C)C5CCOCC5)cc4)[nH]c3c2)cc1 | 246 to 250

Compound | melting point [°C]
CC(C)OC(=O)N1CCC(NC(=O)N2CCn3c(c(C(N)=O)c(C#N)c3C3CCOCC3)C2)CC1 | 124 to 126
CN(C)Cc1nnc2n1-c1ccc(Cl)cc1C(c1ccccc1)=[N+]([O-])C2 | 217 to 219
CCCC(=O)c1cnc2ccc(O)cc2c1Nc1ccc(O)cc1C | 242 to 244
COc1ccc(COc2cccc(C#CC(=O)c3ccccc3)c2)cc1 | 79 to 80
CCc1c(CNc2ccc3ccc(C)nc3n2)c(CC)c(CNc2ccc3ccc(C)nc3n2)c(CC)c1CNc1ccc2ccc(C)nc2n1 | 207 to 208
CN(C)c1ccc(-n2c(N)nc3ccccc32)cc1-c1ccco1 | 208 to 210
NS(=O)(=O)NC(=O)CCCCCC1CCSS1 (stereo not drawn) | 130 to 132
CN1C(=O)[C@H](NC(=O)CCc2ccccc2)N=C(c2ccccc2)c2ccccc21 | 179
O=C1OCCN1CCO | 32 to 33
CN(C(=O)OC(C)(C)C)c1ccc2onc(OCC(CO)NC(=O)OC(C)(C)C)c2c1 (stereo not drawn) | 109 to 112
O=c1c2cc(F)ccc2nc(CSc2ncnc3[nH]cnc23)n1-c1ccccc1Cl | 233
C=CCc1ccc2c(c1O)CCC(=O)N2c1ccccc1 | 177 to 178
Cc1cccc2ncn(-c3nnn[nH]3)c(=O)c12 | 280 to 281
N#Cc1ccc(OC(Cc2ccc(OCCNC(=O)c3ccc(-c4ccccn4)cc3)cc2)C(=O)O)cc1 (stereo not drawn) | 92 to 93
CCCCC(Cc1ccc(OCCNC(=O)c2ccc(-c3ccc(C=O)cc3)cc2)cc1)C(=O)O (stereo not drawn) | 122 to 124
CC12C=CCC1C1CC=C3CC(O)CCC3(CO)C1CC2 (stereo not drawn) | 169 to 171
O=C(O)c1ccc2c(c1)S(=O)(=O)c1ccccc1C=C2 | 268 to 270
N#CCc1cc(O)c(O)c(F)c1 | 100 to 101
